Drawing on ChEMBL document CHEMBL4819031, “Sesquiterpenoids from the Aerial Parts of Salvia plebeia with Inhibitory Activities on Proprotein Convertase Subtilisin/Kexin Type 9 Expression” (J Nat Prod, 2021), this text covers inhibition, IC50 and Activity for 20 compounds.

Usually IC50 stands for the concentration that gives 50% inhibition.

Each structure is given as a SMILES string. Calls of active or inactive are those of the source. The calls are words filed in the database; no cut-off is given here.

Test [1] deals with PCSK9/LDLR (Homo sapiens) (UniProt Q8NBP7+P01130). The test can be described thus: Inhibition of PCSK9 (unknown origin) interaction with LDLR (unknown origin) by ELISA. The test is classed as protein assay. (In general: ELISA stands for enzyme-linked immunosorbent assay.)
Chain of PCSK9/LDLR (Homo sapiens) (P01130 22-860 partner limits assumed): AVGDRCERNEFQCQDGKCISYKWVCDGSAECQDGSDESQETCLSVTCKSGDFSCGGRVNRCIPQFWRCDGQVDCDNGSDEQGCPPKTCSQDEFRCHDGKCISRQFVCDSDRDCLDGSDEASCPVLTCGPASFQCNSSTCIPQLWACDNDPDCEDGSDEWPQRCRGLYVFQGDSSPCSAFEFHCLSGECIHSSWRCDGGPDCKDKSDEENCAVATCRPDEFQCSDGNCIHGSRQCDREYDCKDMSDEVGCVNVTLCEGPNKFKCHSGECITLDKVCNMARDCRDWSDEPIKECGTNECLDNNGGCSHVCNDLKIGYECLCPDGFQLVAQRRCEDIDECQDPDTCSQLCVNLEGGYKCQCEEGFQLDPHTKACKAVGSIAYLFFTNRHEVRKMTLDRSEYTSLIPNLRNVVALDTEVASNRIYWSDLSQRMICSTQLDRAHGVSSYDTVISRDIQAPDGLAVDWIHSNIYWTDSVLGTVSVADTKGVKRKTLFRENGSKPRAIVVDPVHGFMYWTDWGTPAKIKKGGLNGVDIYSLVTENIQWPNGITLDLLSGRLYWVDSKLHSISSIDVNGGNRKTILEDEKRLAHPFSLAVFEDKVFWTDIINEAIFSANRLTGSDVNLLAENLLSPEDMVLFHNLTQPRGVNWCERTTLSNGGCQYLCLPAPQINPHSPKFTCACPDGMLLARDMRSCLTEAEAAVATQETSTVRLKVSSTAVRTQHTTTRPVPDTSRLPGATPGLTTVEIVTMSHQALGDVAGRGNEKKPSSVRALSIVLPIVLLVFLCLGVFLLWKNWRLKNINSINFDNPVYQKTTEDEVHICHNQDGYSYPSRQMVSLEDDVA
Chain of PCSK9/LDLR (Homo sapiens) (Q8NBP7 31-152 limits assumed): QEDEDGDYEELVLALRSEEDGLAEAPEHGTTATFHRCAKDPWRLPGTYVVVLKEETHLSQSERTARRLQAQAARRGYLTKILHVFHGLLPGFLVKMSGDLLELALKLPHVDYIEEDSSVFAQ
Chain of PCSK9/LDLR (Homo sapiens) (Q8NBP7 153-692 limits assumed): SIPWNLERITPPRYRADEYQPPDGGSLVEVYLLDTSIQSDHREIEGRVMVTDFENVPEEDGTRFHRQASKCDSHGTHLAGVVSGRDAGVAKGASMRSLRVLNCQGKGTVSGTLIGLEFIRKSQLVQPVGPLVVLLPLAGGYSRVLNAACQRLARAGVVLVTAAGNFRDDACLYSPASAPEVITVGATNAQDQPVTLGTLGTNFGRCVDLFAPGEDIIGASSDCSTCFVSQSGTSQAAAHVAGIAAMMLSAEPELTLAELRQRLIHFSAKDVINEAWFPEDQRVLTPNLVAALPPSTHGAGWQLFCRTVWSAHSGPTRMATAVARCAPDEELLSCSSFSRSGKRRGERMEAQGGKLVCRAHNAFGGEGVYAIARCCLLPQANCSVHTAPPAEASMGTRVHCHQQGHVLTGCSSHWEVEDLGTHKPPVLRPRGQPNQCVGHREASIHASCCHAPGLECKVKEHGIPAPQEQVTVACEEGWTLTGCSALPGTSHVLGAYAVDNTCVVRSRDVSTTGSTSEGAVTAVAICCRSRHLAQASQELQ
The nature of test [2]: Down regulation of PCSK9 mRNA expression in human HepG2 cells incubated for 24 hrs by SYBR green dye-based qRT-PCR analysis. It is filed as functional, cell-based. To be noted: HepG2, 24 h.
Test [3] concerns HepG2. Nature of the test: Down regulation of PCSK9 mRNA expression in human HepG2 cells at 50 uM incubated for 24 hrs by SYBR green dye-based qRT-PCR analysis. It is filed as functional, cell-based. Background: In qPCR the cycle at which signal appears reflects the starting amount.
Test [4] relates to HepG2. Nature of the test: Down regulation of PCSK9 protein expression in human HepG2 cells at 10 to 50 uM incubated for 24 hrs by Western blotting analysis. It is filed as functional, cell-based. To be noted: dose 10-50 µM. Background: Immunoblotting shows a protein as a band on a membrane.
For test [5], the system named is HepG2. Nature of the test: Up regulation of LDLR protein expression in human HepG2 cells at 10 to 50 uM incubated for 24 hrs by Western blotting analysis. It is filed as functional, cell-based. To be noted: dose 10-50 µM.

Consider `CC(=O)O[C@H]1C(=O)C=C(C)[C@H]2CC3=C(C)C(=O)O[C@@H]3C[C@@]21C`, for which, in test [1], the inhibition entry is “inactive”. With `CC(=O)O[C@@H]1C(=O)C=C(C)[C@]2(O)C/C(=C(\C)C(=O)O)C(O)=C[C@]12C`, in test [1], the inhibition result was “inactive”. Regarding `CC(=O)O[C@H]1C[C@H](O)[C@]2(C)C[C@@H]3OC(=O)C(C)=C3C[C@H]2[C@@H]1C`, the inhibition result in test [1] is “inactive”. On to `CO[C@@]12C[C@]3(C)[C@H](O)C[C@H](OC(C)=O)[C@H](C)[C@H]3CC1=C(C)C(=O)O2`, for which the inhibition entry in test [1] is “inactive”. The same measure, in the same setting: the result for `CC1=C2C[C@@H]3[C@@H](C)[C@@H](O)C[C@@H](O)[C@@]3(C)C=C2OC1=O` reads “inactive”. On the same count and under the same terms, with `CC1=CC(=O)[C@H](O)[C@@]2(C)C=C3OC(=O)C(C)=C3C[C@H]12` the entry was “inactive”.

Consider `CO[C@]12C[C@@]3(C)[C@H](OC(C)=O)C(=O)C=C(C)[C@@H]3CC1=C(C)C(=O)O2`, for which the concentration for half-maximal inhibition (IC50) in test [2] amounted to 25.2 µM. Besides, in the test with HepG2 [3], the outcome was Active. In addition, the inhibition result in test [1] was “inactive”. On to `COc1c(O)cc2oc(-c3ccc(O)cc3)cc(=O)c2c1O`, for which, in test [1], the inhibition result is “inactive”. Take `COc1ccc2cc3[n+](cc2c1OC)CCc1cc2c(cc1-3)OCO2` [BERBERINE CHLORIDE]: 13.8 µM corresponded to half-maximal inhibition in test [2] (IC50). On to `CC(=O)O[C@H]1C[C@@H](O)[C@@]2(C)C[C@H](O)/C(=C(/C)C(=O)O)C[C@@H]2[C@H]1C`, for which the inhibition result in test [1] is “inactive”. Still for that read-out and setting: with `CC(=O)O[C@H]1C(=O)C=C(C)[C@H]2CC3=C(C)C(=O)OC3=C[C@@]21C` the entry was “inactive”. Still for that read-out and setting: the result for `CC(=O)O[C@@H]1C(=O)C=C(C)[C@@H]2CC3=C(C)C(=O)O[C@@H]3C[C@@]12C` reads “inactive”; that for `COc1c(O)cc2c(c1O)C(=O)C[C@@H](c1ccc(O)cc1)O2`, “inactive”. On to `CO[C@]12C[C@@]3(C)[C@H](CC1=C(C)C(=O)O2)C(C)=CC(=O)[C@@H]3OC(C)=O`, for which the inhibition entry in test [1] is “inactive”. Same read-out and setting: with `COC(=O)[C@H](C)[C@H]1C[C@]2(O)C(C)=CC(=O)[C@H](OC(C)=O)[C@]2(C)CC1=O` the entry was “inactive”. For `CC1=C2C[C@@H]3[C@@H](C)C(=O)C=C[C@@]3(C)C[C@@]2(O)OC1=O`, the result in the test on HepG2 [4], in the test on HepG2 [3] and with HepG2 [5] was Active. The compound also came in with an IC50 in test [2] of 27.8 µM. In addition, the inhibition entry in test [1] was “inactive”. As for `CC(=O)O[C@H]1C(=O)C=C(C)[C@H]2CC3=C(C)C(=O)O[C@]3(O)C[C@@]21C`, the inhibition result in test [1] is “inactive”.

Turning to `CC(=O)O[C@H]1C[C@@H](O)[C@@]2(C)C=C3OC(=O)C(C)=C3C[C@@H]2[C@H]1C`, the inhibition result in test [1] is “inactive”.

Take `CC(=O)O[C@H]1C[C@@H](O)[C@@]2(C)C[C@@]3(O)OC(=O)C(C)=C3C[C@@H]2[C@H]1C`: the inhibition result in test [1] is “inactive”. For the compound `CO[C@@H]1CC(=O)[C@H](C)[C@H]2C/C(=C(\C)C(=O)O)C[C@@]21C`, the result in the test with HepG2 [4], in the test with HepG2 [3] and in the test on HepG2 [5] was Active. In test [2], this compound returned an IC50 of 24.4 µM. Besides, in test [1], the inhibition entry was “inactive”.
